According to patent US20140018537A1, “GPR119 AGONIST” (NIPPON CHEMIPHAR CO., LTD., priority 2008, published 2014):

How the values were obtained:
human GPR119 = target: T1, human GPR119 (Homo sapiens, UniProt Q8TDV5); experiment: Intracellular cAMP increase in human GPR119 introduced cells (HitHunter cAMP XS+ Assay); format: cell-based; settings: for EC50: hGPR119 stable cells, intracellular cAMP; for GPR119 agonist effect (in words): hGPR119 introduced cells, cAMP
T1 construct: expressed in transfected cells
T1 sequence (Q8TDV5 1-335): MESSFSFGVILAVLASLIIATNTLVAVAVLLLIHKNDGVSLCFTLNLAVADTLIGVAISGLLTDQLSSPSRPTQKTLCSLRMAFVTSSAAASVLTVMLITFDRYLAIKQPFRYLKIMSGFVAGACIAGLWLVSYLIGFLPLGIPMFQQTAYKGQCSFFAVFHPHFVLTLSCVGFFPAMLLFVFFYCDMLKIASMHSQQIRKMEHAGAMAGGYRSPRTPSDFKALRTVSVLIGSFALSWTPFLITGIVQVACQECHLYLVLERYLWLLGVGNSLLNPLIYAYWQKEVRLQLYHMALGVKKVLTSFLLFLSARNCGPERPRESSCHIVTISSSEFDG
From the text: The GPR119 agonist effect was studied by measuring the effect of an analyte on increase of intracellular amount of cAMP in human GPR119 introduced cells. The testing method is described below.
(1) Construction of the Stable Cell Line Expressing Human G Protein-Coupled-Receptor 119 (hGPR119) Human GPR119 gene (NM 178471) is purchased from American Type Culture Collection (ATCC No. 10807349). Hind III site-added forward side primer ([…]: sequence No. 1) and Apa I site-added reverse side primer ([…]: sequence No. 2) are designed. The target gene is amplyfied by a polymerase chain reaction (PCR) method using KOD-Plus-Ver. 2 (TOYOBO #KOD-211). PCR is conducted by repeating three steps consisting of the step of 98° C.-10 seconds, the step of 55° C.-30 seconds, and the step of 68° C.-1 minute and 10 seconds in 35 cycles. The amplified PCR product is inserted into pcDNA5/FRT/TO (Invitrogen #V6520-20) plasmid. Cells, which can constantly express the target gene with tetracycline, are constructed using Flp-In T-REx-systen (invitorogen).
(2) Measurement of Intracellular Cyclic Adenosine Monophosphate (cAMP)
The hGPR119 introduced cells prepared in (1) are plated on a 96-well plate using Dulbecco's Modified Eagle Medium containing heat-inactived 10% fetal bovine serum. After incubation of 24 hours, tetracyclin (invitrogen #Q10019) is added to the culture medium to induce hGPR119 gene expression. After further incubation of 24 hours, the cells are stimulated with 0.5 mM 3-ISOBUTYL-1-METHYLXANTHINE (Sigma #17018) phosphate buffer containing the analyte at 37° C. for 30 minutes. The amount of the intracellular cAMP is measured by using FLUOstar Optima (BMG LABTECH) according to the protocol of HitHunter™ cAMP XS+Assay (GE Healthcare #90007503) to give the agonist activity of the analyte to the GPR119 receptor.
(1) Construction of the Stable Cell Line Expressing Human G-Protein Coupled Receptor 119 (hGPR119) hGPR119 gene (NM 178471) was purchased from American Type Culture Collection (ATCC No. 10807349). The forward primer that was added a HindIII site ([…] (sequence number 1)), and the reverse primer that was added an ApaI site ([…] (sequence number 2)) were designed, the target gene was amplified by polymerase chain reaction (PCR) using a KOD-Plus-Ver.2 (TOYOBO #KOD-211). PCR was repeated 3 steps (98° C. for 10 sec, 55° C. for 30 sec, 68° C. for 1 min 15 sec) by 35 cycles. Amplified PCR product was inserted in pcDNA5/FRT/TO (Invitrogen #V6520-20), and the stable cell line that expresses target gene when induced with tetracycline was created using the Flp-In T-Rex system (Invitrogen).
(2) Measuring Method of Intracellular Cyclic Adenosine Monophosphate (cAMP) hGPR119 stable cells made by above-mentioned (1) were plated on 96 well plates in Dulbecco's Modified Eagle Medium containing 10% heat-inactivated FBS. After 24 hours, the hGPR119 expression was induced by adding medium containing tetracycline (Invitrogen #Q10019) and incubating for another 24 hours. Following incubation, cells were stimulated by 0.5 mM 3-ISOBUTYL-1-METHYLXANTHINE (Sigma #17018) phosphate buffered saline containing test compound for 30 minutes at 37° C. Agonist activity of test compound to the GPR119 receptor was estimated by measuring the intracellular cAMP concentration using a Fluostar optima plate reader (BMG LABTECH) according to the manufacturer's protocol of the HitHunter™ cAMP XS+Assay (GE Healthcare #90007503).
The examination was performed by the method similar to Example 86 (Pharmacological experiment 1)-(1), -(2).

normal mice = experiment: Oral glucose tolerance test in normal mice; format: in vivo
Procedure: Oral glucose tolerance is tested in normal mice.
In this experiment, the inhibitory effect of an analyte on glycemic excursions is examined after glucose administration in normal mice. The test methods are described below.
Male 9-week-old ICR mice, habituated to the experimental environment for two weeks, are fasted for 18 hours and used to this experiment. Mice are orally administered the analyte or vehicle (polyethylene glycol 400:ethanol:Tween 80=8:1:1). After 30 minutes, they were orally given glucose at the dose of 3 g/kg.
Blood was collected at just before the analyte or vehicle administration (−30 minutes), immediately before glucose challenge (0 minute), 20 minutes, 40 minutes, 60 minutes, and 120 minutes after glucose ingestion to determine blood glucose levels.
Inhibition rate (%) of the analyte versus vehicle in areas under the glycemic excursion curve between 0 and 120 min after glucose challenge is determined.
Oral Glucose Tolerance Test in Normal Mice […]
Blood was collected at just before the test compound or vehicle administration (−30 min), immediately before glucose challenge (0 min), 20 min, 40 min, 60 min and 120 min after glucose ingestion and then blood glucose levels were determined.
Inhibition rate (%) of the test compound versus vehicle in areas under the glycemic excursion curve between 0 and 120 min after glucose challenge was determined.

[1] = Table 16, tetracycline-induced, 30 minutes at 37° C.
[2] = Table 17, method similar to Example 86

| SMILES | melting point [°C] | EC50 (human GPR119; [2]) [nM] | also measured |
| --- | --- | --- | --- |
| CC(C)(C)OC(=O)N1CCC(c2ccc(COc3ccc(S(C)(=O)=O)cc3)nc2)CC1 [Example 1, tert-Butyl 4-[2-(4-methanesulfonylphenoxymethyl)pyridin-5-yl]piperidine-1-carboxylate] |  |  | EC50 (human GPR119; [1]): 26.8 nM; GPR119 agonist effect (in words) (human GPR119): excellent GPR119 agonist effect; Inhibition rate (%) (normal mice; 10 mg/kg oral, male ICR mice, glucose 3 g/kg 30 min later, area under glycemic excursion curve 0-120 min versus vehicle): 41.8%; inhibitory effect on glycemic excursions (in words) (normal mice; oral glucose tolerance test of normal mice): strong inhibitory effect |
| CCc1cnc(N2CCC(c3ccc(COc4ccc(S(C)(=O)=O)cc4)nc3)CC2)nc1 [Example 48, 5-Ethyl-2-[4-[2-(4-methanesulfonylphenoxymethyl)pyridin-5-yl]piperidin-1-yl]pyrimidine] | 185 to 187 | 137 |  |
| CCCCCc1cnc(N2CCC(c3ccc(COc4ccc(S(C)(=O)=O)cc4)nc3)CC2)nc1 [Example 50, 2-[4-[2-(4-Methanesulfonylphenoxymethyl)pyridin-5-yl]piperidin-1-yl]-5-pentylpyrimidine] | 154 to 157 |  |  |
| CCc1cnc(N2CCC(c3ccc(COc4ccc(C#N)c(F)c4)nc3)CC2)nc1 [Example 52, 2-[4-[2-(4-Cyano-3-fluorophenoxymethyl)pyridin-5-yl]piperidin-1-yl]-5-ethylpyrimidine] | 129 to 131 |  |  |
| CCCCCc1cnc(N2CCC(c3ccc(COc4ccc(C#N)c(F)c4)nc3)CC2)nc1 [Example 54, 2-[4-[2-(4-Cyano-3-fluorophenoxymethyl)pyridin-5-yl]piperidin-1-yl]-5-pentylpyrimidine] | 92 to 94 |  |  |
| CCCCCc1cnc(N2CCC(c3ccc(COc4ccc(-n5cnnn5)cc4)nc3)CC2)nc1 [Example 56, 5-Pentyl-2-[4-[2-[4-(tetrazol-1-yl)phenoxymethyl]pyridin-5-yl]piperidin-1-yl]pyrimidine] | 174 to 176 |  |  |
| Cc1cc(C2CCN(C(=O)OC(C)(C)C)CC2)cnc1COc1ccc(S(C)(=O)=O)cc1Cl [Example 80, tert-Butyl 4-[2-(2-chloro-4-methanesulfonylphenoxymethyl)-3-methylpyridin-5-yl]piperidine-1-carboxylate] | 143 to 145 | 65.9 |  |

Now from value to compound, other results behind:

| melting point [°C] | EC50 (human GPR119; [2]) [nM] | SMILES | also measured |
| --- | --- | --- | --- |
| 140 to 142 |  | CC(C)(C)OC(=O)N1CCC(c2ccc(COc3ccc(S(C)(=O)=O)cc3)cn2)CC1 [Example 2, tert-Butyl 4-[5-(4-methanesulfonylphenoxymethyl)pyridin-2-yl]piperidine-1-carboxylate] | EC50 (human GPR119; [1]): 606 nM; GPR119 agonist effect (in words) (human GPR119): excellent GPR119 agonist effect |
| 143 to 145 | 137 | CC(C)c1nc(N2CCC(c3ccc(COc4ccc(S(C)(=O)=O)cc4)nc3)CC2)no1 [Example 8, 5-[1-(5-Isopropyl-1,2,4-oxadiazol-3-yl)piperidin-4-yl]-2-(4-methanesulfonylphenoxymethyl)pyridine] |  |
| 147 to 150 | 129 | CC(C)(C)OC(=O)N1CCC(c2ccc(COc3ccc(-n4cncn4)cc3)nc2)CC1 [Example 16, tert-Butyl 4-[2-[4-(1,2,4-triazol-1-yl)phenoxymethyl]pyridin-5-yl]piperidine-1-carboxylate] |  |
| 114 to 115 | 114 | CCC(C)(C)OC(=O)N1CCC(c2ccc(COc3ccc(S(C)(=O)=O)cc3)nc2)CC1 [Example 41, 1,1-Dimethylpropyl 4-[2-(4-methanesulfonylphenoxymethyl)pyridin-5-yl]piperidine-1-carboxylate] |  |
| 130 to 132 | 28.4 | Cc1cc(C2CCN(C(=O)OC(C)(C)C)CC2)cnc1COc1ccc(S(C)(=O)=O)cc1 [Example 63, tert-Butyl 4-[2-(4-methanesulfonylphenoxymethyl)-3-methylpyridin-5-yl]piperidine-1-carboxylate] |  |
| 153 to 154 |  | COc1cc(C2CCN(C(=O)OC(C)(C)C)CC2)cnc1COc1ccc(S(C)(=O)=O)cc1 [Example 67, tert-Butyl 4-[2-(4-methanesulfonylphenoxymethyl)-3-methoxypyridin-5-yl]piperidine-1-carboxylate] |  |
| 148 to 150 |  | CC(C)(C)OC(=O)N1CC=C(c2cnc(COc3ccc(S(C)(=O)=O)cc3)cc2Cl)CC1 [Example 76, tert-Butyl 4-[4-chloro-2-(4-methanesulfonylphenoxymethyl)pyridin-5-yl]-3,6-dihydro-2H-pyridine-1-carboxylate] |  |
